Laboratory results as given in patent US9561228B2 (Celgene Avilomics Research, Inc., priority 2013, dated 2017).

How the values were obtained:
[1] = test system: ERK1/2 phosphorylation of p90RSK in HT29 cells; experiment: pRSK MSD Assay in HT29 cells; type: cell-based; settings: Homo sapiens, HT-29, read-out: ERK1/ERK2 PRSK MSD HT29 EC50
How it was run: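 Phospho-RSK level, read by electrochemiluminescence on RSK-antibody-coated MSD plates with a phospho-RSK/Sulfo-tag detection pair, reports cellular ERK1/2 activity. HT29 cells, kept overnight in 0.1% FBS medium, were exposed to compound for 120 min at 37° C before lysis.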

Erk1 = biological target: T1, Erk1 (Homo sapiens, UniProt P27361); experiment: Protein Mass Modification Assay (intact protein MALDI, 60 min, 10-fold excess of compound); type: binding
T1 construct: purchased Millipore 14-439
T1 sequence (P27361 whole entry): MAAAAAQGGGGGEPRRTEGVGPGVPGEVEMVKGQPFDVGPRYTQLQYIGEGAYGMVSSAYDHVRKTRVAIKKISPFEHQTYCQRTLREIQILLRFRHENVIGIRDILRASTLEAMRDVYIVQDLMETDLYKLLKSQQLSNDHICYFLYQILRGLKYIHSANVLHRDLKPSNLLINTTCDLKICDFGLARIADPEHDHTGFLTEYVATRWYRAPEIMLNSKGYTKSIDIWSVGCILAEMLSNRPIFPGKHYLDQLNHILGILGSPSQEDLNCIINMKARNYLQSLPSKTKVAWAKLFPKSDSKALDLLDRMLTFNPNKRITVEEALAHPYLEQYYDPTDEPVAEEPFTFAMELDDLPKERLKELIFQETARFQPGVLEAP
How it was run: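 Percent covalent modification comes from the intact-protein MALDI centroid mass shift, treated versus control, divided by compound MW. Before analysis, human Erk1 was exposed to compound at 10-fold excess over protein for 60 min at room temperature.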

[2] = test system: ERK1/2 phosphorylation of p90RSK in A375 cells; experiment: Detection of total and phosphor-RSK by MSD ELISA (A375); type: cell-based; settings: Homo sapiens, A-375, read-out: ERK1/ERK2 PRSK A375 EC50
How it was run: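 Electrochemiluminescent MSD ELISA: common RSK capture antibody, with pRSK Ser380 or total RSK detection antibodies plus SulfoTag secondaries. Samples were lysates of A375 cells exposed to compound for 2 h at 37° C after overnight culture in 0.1% FBS DMEM.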

EC50 [1] [nM]	ERK1 Mass Mod (%) (Erk1)	EC50 [2] [nM]	SMILES
< 100	E (a mass modification of ≧70%)	< 100	C=CC(=O)Nc1cc(CCC(N)=O)ccc1Nc1nc(Nc2cc(OC)ncc2C)ncc1C(F)(F)F [Compound I-400, N-(5-(3-amino-3-oxopropyl)-2-((2-((2-methoxy-5-methylpyridin-4-yl)amino)-5-(trifluoromethyl)pyrimidin-4-yl)amino)phenyl)acrylamide]
101 to 500	E (a mass modification of ≧70%)	101 to 500	C=CC(=O)Nc1cc(C)ccc1Nc1nc(Nc2cc(OCC)ncc2C)ncc1C(F)(F)F [Compound I-358, N-(2-((2-((2-ethoxy-5-methylpyridin-4-yl)amino)-5-(trifluoromethyl)pyrimidin-4-yl)amino)-5-methylphenyl)acrylamide]
101 to 500	E (a mass modification of ≧70%)	101 to 500	C=CC(=O)Nc1c(Nc2nc(Nc3cc(OC)ncc3C)ncc2C(F)(F)F)ccc(C)c1F [Compound I-367, N-(2-fluoro-6-((2-((2-methoxy-5-methylpyridin-4-yl)amino)-5-(trifluoromethyl)pyrimidin-4-yl)amino)-3-methylphenyl)acrylamide]
< 100	E (a mass modification of ≧70%)	< 100	C=CC(=O)Nc1cc(CN2CCN(S(C)(=O)=O)CC2)ccc1Nc1nc(Nc2cc(OC)ncc2C)ncc1C(F)(F)F [Compound I-384, N-(2-((2-((2-methoxy-5-methylpyridin-4-yl)amino)-5-(trifluoromethyl)pyrimidin-4-yl)amino)-5-((4-(methylsulfonyl)piperazin-1-yl)methyl)phenyl)acrylamide]
–	E (a mass modification of ≧70%)	101 to 500	C=CC(=O)Nc1cc(C)ccc1Nc1nc(Nc2nc(OC)ncc2Cl)ncc1C(F)(F)F [Compound I-344, N-(2-((2-((5-chloro-2-methoxypyrimidin-4-yl)amino)-5-(trifluoromethyl)pyrimidin-4-yl)amino)-5-methylphenyl)acrylamide]
> 1000	F (a mass modification of 31-69%)	> 1000	C=CC(=O)Nc1cc(C)ccc1Nc1nc(Nc2cc(OC(C)C)ncc2C)ncc1C(F)(F)F [Compound I-369, N-(2-((2-((2-isopropoxy-5-methylpyridin-4-yl)amino)-5-(trifluoromethyl)pyrimidin-4-yl)amino)-5-methylphenyl)acrylamide]
< 100	F (a mass modification of 31-69%)	101 to 500	C=CC(=O)Nc1cc(C)ccc1Nc1nc(Nc2cc(OC)nnc2OC)ncc1C(F)(F)F [Compound I-372, N-(2-((2-((3,6-dimethoxypyridazin-4-yl)amino)-5-(trifluoromethyl)pyrimidin-4-yl)amino)-5-methylphenyl)acrylamide]
< 100	E (a mass modification of ≧70%)	< 100	C=CC(=O)Nc1cc(C)ccc1Nc1nc(Nc2cc(OCCO)ncc2C)ncc1C(F)(F)F [Compound I-376, N-(2-((2-((2-(2-hydroxyethoxy)-5-methylpyridin-4-yl)amino)-5-(trifluoromethyl)pyrimidin-4-yl)amino)-5-methylphenyl)acrylamide]
101 to 500	F (a mass modification of 31-69%)	101 to 500	C=CC(=O)Nc1cc(C)ccc1Nc1nc(Nc2cc(OC)ncc2Cl)ncc1C(F)(F)F [Compound I-351, N-(2-((2-((5-chloro-2-methoxypyridin-4-yl)amino)-5-(trifluoromethyl)pyrimidin-4-yl)amino)-5-methylphenyl)acrylamide]
< 100	E (a mass modification of ≧70%)	< 100	C=CC(=O)Nc1cc(C)c(F)cc1Nc1nc(Nc2nc(OC)ncc2Cl)ncc1C(F)(F)F [Compound I-374, N-(2-((2-((5-chloro-2-methoxypyrimidin-4-yl)amino)-5-(trifluoromethyl)pyrimidin-4-yl)amino)-4-fluoro-5-methylphenyl)acrylamide]
501 to 999	F (a mass modification of 31-69%)	501 to 999	C=CC(=O)Nc1cc(C)c(C#N)cc1Nc1nc(NC2CCOCC2)ncc1C(F)(F)F [Compound I-397, N-(4-cyano-5-methyl-2-((2-((tetrahydro-2H-pyran-4-yl)amino)-5-(trifluoromethyl)pyrimidin-4-yl)amino)phenyl)acrylamide]
< 100	E (a mass modification of ≧70%)	< 100	C=CC(=O)Nc1cc(CN2CCN(C(=O)CO)CC2)ccc1Nc1nc(Nc2cc(OC)ncc2C)ncc1C(F)(F)F [Compound I-385, N-(5-((4-(2-hydroxyacetyl)piperazin-1-yl)methyl)-2-((2-((2-methoxy-5-methylpyridin-4-yl)amino)-5-(trifluoromethyl)pyrimidin-4-yl)amino)phenyl)acrylamide]
< 100	E (a mass modification of ≧70%)	< 100	C=CC(=O)Nc1cc(OCC(N)=O)ccc1Nc1nc(Nc2cc(OC)ncc2C)ncc1C(F)(F)F [Compound I-398, N-(5-(2-amino-2-oxoethoxy)-2-((2-((2-methoxy-5-methylpyridin-4-yl)amino)-5-(trifluoromethyl)pyrimidin-4-yl)amino)phenyl)acrylamide]
101 to 500	E (a mass modification of ≧70%)	> 1000	C=CC(=O)Nc1cc(CN2CCN(C(C)=O)CC2)ccc1Nc1nc(Nc2nc(OC)ncc2C)ncc1C(F)(F)F [Compound I-382, N-(5-((4-acetylpiperazin-1-yl)methyl)-2-((2-((2-methoxy-5-methylpyrimidin-4-yl)amino)-5-(trifluoromethyl)pyrimidin-4-yl)amino)phenyl)acrylamide]
101 to 500	E (a mass modification of ≧70%)	101 to 500	C=CC(=O)Nc1cc(C)ccc1Nc1nc(Nc2nc(OC)ncc2C#N)ncc1C(F)(F)F [Compound I-346, N-(2-((2-((5-cyano-2-methoxypyrimidin-4-yl)amino)-5-(trifluoromethyl)pyrimidin-4-yl)amino)-5-methylphenyl)acrylamide]
> 1000	E (a mass modification of ≧70%)	> 1000	C=CC(=O)Nc1cc(C)c(F)cc1Nc1nc(Nc2cc(OC)ncc2C)ncc1C(F)(F)F [Compound I-366, N-(4-fluoro-2-((2-((2-methoxy-5-methylpyridin-4-yl)amino)-5-(trifluoromethyl)pyrimidin-4-yl)amino)-5-methylphenyl)acrylamide]
101 to 500	E (a mass modification of ≧70%)	101 to 500	C=CC(=O)Nc1cc(C)ccc1Nc1nc(Nc2ncc(C(F)(F)F)c(OC)n2)ncc1C(F)(F)F [Compound I-354, N-(2-((2-((4-methoxy-5-(trifluoromethyl)pyrimidin-2-yl)amino)-5-(trifluoromethyl)pyrimidin-4-yl)amino)-5-methylphenyl)acrylamide]
101 to 500	E (a mass modification of ≧70%)	101 to 500	C=CC(=O)Nc1cc(C)ccc1Nc1nc(Nc2nc(OC)ncc2C(F)(F)F)ncc1C(F)(F)F [Compound I-355, N-(2-((2-((2-methoxy-5-(trifluoromethyl)pyrimidin-4-yl)amino)-5-(trifluoromethyl)pyrimidin-4-yl)amino)-5-methylphenyl)acrylamide]
> 1000	F (a mass modification of 31-69%)	> 1000	C=CC(=O)Nc1cc(C)ccc1Nc1nc(Nc2cnc(OC)cc2C)ncc1C(F)(F)F [Compound I-350, N-(2-((2-((6-methoxy-4-methylpyridin-3-yl)amino)-5-(trifluoromethyl)pyrimidin-4-yl)amino)-5-methylphenyl)acrylamide]
101 to 500	E (a mass modification of ≧70%)	101 to 500	C=CC(=O)Nc1cc(C)ccc1Nc1nc(Nc2nc(OC)ncc2OC)ncc1C(F)(F)F [Compound I-349, N-(2-((2-((2,5-dimethoxypyrimidin-4-yl)amino)-5-(trifluoromethyl)pyrimidin-4-yl)amino)-5-methylphenyl)acrylamide]

SMILES	EC50 [1] [nM]	ERK1 Mass Mod (%) (Erk1)	EC50 [2] [nM]
C=CC(=O)Nc1cc(C)ccc1Nc1nc(Nc2cc(OC)nc(N3CCN(C(C)=O)CC3)c2)ncc1C(F)(F)F [Compound I-93, N-(2-((2-((2-(4-Acetylpiperazin-1-yl)-6-methoxypyridin-4-yl)amino)-5-(trifluoromethyl)pyrimidin-4-yl)amino)-5-methylphenyl)acrylamide]	< 100	E (key: E: a mass modification of ≧70%; F: a mass modification of 31-69%; G: a mass modification ≦30%)	< 100
C=CC(=O)Nc1cc(C)ccc1Nc1nc(Nc2cc(OC)nc(OC)c2)ncc1C(F)(F)F [Compound I-96]	–	E (key: E: a mass modification of ≧70%; F: a mass modification of 31-69%; G: a mass modification ≦30%)	101 to 500
C=CC(=O)Nc1cc(C)ccc1Nc1nc(Nc2cc(N[C@H]3CC[C@](C)(O)CC3)nc(OC)c2)ncc1C(F)(F)F [Compound I-327, N-(2-((2-((2-((trans-4-hydroxy-4-methylcyclohexyl)amino)-6-methoxypyridin-4-yl)amino)-5-(trifluoromethyl)pyrimidin-4-yl)amino)-5-methylphenyl)acrylamide]	–	E (a mass modification of ≧70%)	< 100
